Paper PMC7883289, “Synthesis of Paeonol-Ozagrel Conjugate: Structure Characterization and In Vivo Anti-Ischemic Stroke potential” (Frontiers in Pharmacology, 2021)

What was measured:
[1] = system: middle cerebral artery occlusion (MCAO) rats; assay: Evaluation of neurological deficit (Longa score) in MCAO rats; assay type: in vivo; conditions: 24 h after reperfusion, single iv dose 2 h after reperfusion: paeonol and OS 3 mg/kg, POC 4.5 mg/kg, n = 6
Description: Male Sprague Dawley (SD) rats weighing among 220 g-230 g (Anhui Medicine University, Hefei, China; certificate number: SCXK20190,003) were housed under ad libitum access to food and water with a standardized light-dark cycle condition (25 ± 2°C, 12-hour light/dark cycle). All the experimental protocols were performed in accordance with the Institutional Animal Care and Use Committee of Anhui University of Chinese Medicine (Animal ethics number: AHUCM-rats-2019001). We used the minimal number of study animals (n = 6 rats in each group for different experiments). The rats were fastened upon the operating table in a supine position after being anesthetized with 2% pelltobarbitalum natricum (50 mg/kg). After disinfection of the skin within close proximity of the operative region, the right common carotid artery (CCA), external carotid artery (ECA) and internal carotid artery (ICA) were exposed with blunt dissection. The CCA was temporarily ligated and the ECA were permanently ligated ([Liu et al., 2016]). A nylon monofilament surgical thread was introduced into the ICA to block the MCA when the blunted distal end met resistance. After 2 h of occlusion, reperfusion was accomplished to restore blood supply to the MCA area by removing the filament ([Li et al., 2009]; [Zhai et al., 2017]). […] Rats were split randomly into five groups, including the sham, model, paeonol, OS and POC group. […] Neurological deficit was evaluated 24 h after reperfusion (blinded to experimenters). […] The rating score was assessed by the following standard: no neurological deficit, 0; failure to extend left forepaw fully, one; spontaneous circling to the left, two; falling to the left, three; inability to walk spontaneously and coma of consciousness, 4. […] Neurological scores for each group were calculated using six rats according to a sample size calculation (α err prob = 0.05, 1-β err prob = 0.95) and references ([Katayama et al., 2017]; [[…] al., 2019]; [Zheng et al., 2019]).

[2] = system: middle cerebral artery occlusion (MCAO) rats; assay: Measurement of infarct volume by TTC staining in MCAO rats; assay type: in vivo; conditions: 24 h after reperfusion, single iv dose: paeonol and OS 3 mg/kg, POC 4.5 mg/kg, n = 6
Description: Male Sprague Dawley (SD) rats weighing among 220 g-230 g (Anhui Medicine University, Hefei, China; certificate number: SCXK20190,003) were housed under ad libitum access to food and water with a standardized light-dark cycle condition (25 ± 2°C, 12-hour light/dark cycle). All the experimental protocols were performed in accordance with the Institutional Animal Care and Use Committee of Anhui University of Chinese Medicine (Animal ethics number: AHUCM-rats-2019001). We used the minimal number of study animals (n = 6 rats in each group for different experiments). The rats were fastened upon the operating table in a supine position after being anesthetized with 2% pelltobarbitalum natricum (50 mg/kg). After disinfection of the skin within close proximity of the operative region, the right common carotid artery (CCA), external carotid artery (ECA) and internal carotid artery (ICA) were exposed with blunt dissection. The CCA was temporarily ligated and the ECA were permanently ligated ([Liu et al., 2016]). A nylon monofilament surgical thread was introduced into the ICA to block the MCA when the blunted distal end met resistance. After 2 h of occlusion, reperfusion was accomplished to restore blood supply to the MCA area by removing the filament ([Li et al., 2009]; [Zhai et al., 2017]). […] Rats were split randomly into five groups, including the sham, model, paeonol, OS and POC group. After 2 h of reperfusion, the paeonol and OS groups received the drug by intravenous injection at a single dose of 3 mg/kg ([Imamura et al., 2003]; [Park et al., 2010]; [Gai et al., 2019]), which the doses of paeonol and OS uesd previously were benificial in rats and the dose of OS is within the clinical dose range. […] Cerebral infarction volume was determined using TTC staining. […] The infarction and total brain volume were quantified using ImageJ software. The infarct volume was calculated as a ratio of the infarcted tissue relative to the total area of the whole-brain coronal section ([Ye and Gao, 2008]; [Katayama et al., 2017]). […]

| Compound | neurological deficits score (Longa, 0-4) [1] | cerebral infarction volume percentage [2] |
| --- | --- | --- |
| COc1ccc(C(C)=O)c(O)c1 [paeonol] | 2.50 ± 0.55 | 20.87% ± 1.43 |
| O=C([O-])/C=C/c1ccc(Cn2ccnc2)cc1.[Na+] [OS, Ozagrel sodium] | 2.00 ± 0.63 | 18.68% ± 1.35 |
